The results in this text go back to PubChem BioAssay AID1996.

The kinetic solubility is solubility judged after dilution from a stock solution rather than from solid.

≈ marks a conversion by molar mass, not a printed value.

For the data set the following is noted: buffer; pH 7.4; 200.0 µM.
On to `O=C(COc1ccc2c(c1)OCO2)NCc1cccs1`, for which the solubility (kinetic) was above 43.7 µg/mL.
The compound `COc1ccc(Nc2ncnc3sc(-c4ccccc4)cc23)c(OC)c1` displayed a solubility (kinetic) of 0.6 µg/mL (≈ 1.65 µM).
Regarding `O=C(Cn1c(=O)oc2ccccc21)Nc1ccc(Br)cc1`, the solubility (kinetic) worked out at 2.1 µg/mL (≈ 6.05 µM).
Under `CNC(=S)Nc1ccc2[nH]c(=O)[nH]c2c1` stands above 33.3 µg/mL; under `CC(C)CCN1CCN(Cc2cc3ccccc3[nH]2)CC1CCO` (configuration not stated), 39.3 µg/mL (≈ 119 µM); under `Cc1ccccc1C(=O)Nc1ccc(N(C)C)c2ccccc12`, 13.6 µg/mL (≈ 44.7 µM).
`Cc1ccccc1OS(=O)(=O)c1cn(C)c(=O)n(C)c1=O` had a solubility (kinetic) above 46.5 µg/mL.
As to `O=C(c1cc(-c2ccc3c(c2)OCO3)on1)N1CCCCC1`, the solubility (kinetic) was found to be 5.7 µg/mL (≈ 19 µM).
With `CC(C)c1ccc2nc(N)sc2c1` the figure was 28.3 µg/mL (≈ 147 µM).
The compound `O=C(CC1SC(N2CCOCC2)=NC1=O)Nc1ccc(F)cc1` (configuration not stated) registered a solubility (kinetic) above 50.6 µg/mL.
Consider `O=C(/C=C/c1ccc(Cl)c([N+](=O)[O-])c1)c1ccc(O)cc1`, for which the kinetic solubility came to 3.9 µg/mL (≈ 12.8 µM).
`COC(=O)c1cccc(NC(=O)c2cccc([N+](=O)[O-])c2)c1` returned a kinetic solubility of 3.8 µg/mL (≈ 12.7 µM).
Under `CC1=C(C)CC(C(=O)NC2CCN(C(C)C)CC2)C(C(=O)O)C1` (configuration not stated) stands above 48.4 µg/mL; under `Cc1ccccc1NC(=S)N1CCN(c2ccccc2C)CC1`, 0.6 µg/mL (≈ 1.84 µM).
The compound `COc1ccc(CCNc2ccc(S(N)(=O)=O)cn2)cc1` came in with a kinetic solubility of 42.8 µg/mL (≈ 139 µM).
`COc1cccc(OC)c1OC(=O)c1cnccn1` came in with a kinetic solubility below 0.3 µg/mL.
As to `Cc1ccsc1/C=C1/SC(=O)N(CC(=O)N2CCCC2)C1=O`, the solubility (kinetic) was determined as 5.9 µg/mL (≈ 17.5 µM).
`O=C1Nc2ccc(Br)cc2C1(O)c1ccc(F)cc1` (configuration not stated) returned a solubility (kinetic) above 48.3 µg/mL.
Turning to `C=CCNC(=S)N1CCC(Cc2ccccc2)CC1`, the solubility (kinetic) is 31.5 µg/mL (≈ 115 µM).
`Cc1cccc(NC(=S)NCc2ccccc2)c1C` showed a solubility (kinetic) of 35.1 µg/mL (≈ 130 µM).
`Cc1ccccc1OCc1nc(C#N)c(N2CCCC2)o1` displayed a kinetic solubility of 10.9 µg/mL (≈ 38.5 µM).
Under `CC(=O)c1cn(CCOc2ccc(F)cc2)c2ccccc12` stands 10.8 µg/mL (≈ 36.3 µM).
For `CC1CCN(C(=O)COC(=O)CCc2c[nH]c3ccccc23)CC1`, the kinetic solubility came to 9 µg/mL (≈ 27.4 µM).
In turn, `Cc1cc(=O)[nH]c(SCC(=O)Nc2ccccc2[N+](=O)[O-])n1` came in with a solubility (kinetic) above 48 µg/mL.
Turning to `O=C(Nc1ccc(-c2cnco2)cc1)c1ccccc1`, the solubility (kinetic) is below 0.3 µg/mL.
Compound `C/C(=N\n1c(C)nc2ccccc2c1=O)c1ccc(C)o1` came in with a kinetic solubility above 42.2 µg/mL.
Compound `Nc1[nH]c2cc([N+](=O)[O-])ccc2c1-c1ccccn1` had a solubility (kinetic) of 1.4 µg/mL (≈ 5.51 µM).
In turn, `CCCCN(C(=O)C1=NN(c2ccccc2)C(=O)CC1)c1c(N)n(CCC)c(=O)[nH]c1=O` showed a kinetic solubility above 66.1 µg/mL.
As for `Cc1ccc[n+](CC(=O)c2ccc(Cl)cc2)c1.[Cl-]`, the kinetic solubility was above 42.3 µg/mL.
Turning to `O=C1CSC(c2cccnc2)N1Cc1cccnc1` (configuration not stated), the solubility (kinetic) is 40.2 µg/mL (≈ 148 µM).
With `CCOC(=O)Cc1csc(CC(N)=O)[nH+]1.[Cl-]` the figure was above 39.7 µg/mL; with `COc1ccc(NC(=O)COC(=O)c2ccc(F)cc2F)cc1`, above 48.2 µg/mL; with `Cc1cc(SCc2ccc([N+](=O)[O-])cc2)nc(=O)[nH]1`, 24.2 µg/mL (≈ 87.3 µM).
`Cc1ccc2nc(C)c3c(c2c1)SCC3` had a solubility (kinetic) of 11.3 µg/mL (≈ 52.5 µM).
With `Cc1cccc(C(=O)O)c1NC(=O)Cc1cccc2ccccc12` the figure was above 47.9 µg/mL; with `N#Cc1cccc(C(=O)N(CCc2ccccc2)Cc2cccs2)c1`, 12.9 µg/mL (≈ 37.2 µM); with `O=C(NCc1ccc2c(c1)OCO2)C(=O)Nc1ccccc1`, 0.5 µg/mL (≈ 1.68 µM).
In turn, `CCc1ccc(OCC(=O)OCC(=O)NC2CCCC(C)C2C)cc1` (configuration not stated) displayed a solubility (kinetic) of 9.2 µg/mL (≈ 26.5 µM).
Take `CCOC(=O)C1(Cc2cccc(F)c2)CCN(C(=O)COC)CC1`: the solubility (kinetic) stood at 47.2 µg/mL (≈ 140 µM).
In turn, `CCCOc1ccc(N2C(=O)C3C4C=CC(CC4)C3C2=O)cc1` (configuration not stated) returned a kinetic solubility of 4.6 µg/mL (≈ 14.8 µM).
Turning to `Cc1ccc(-c2csc(NC(=O)c3cccc(C)c3)c2C(=O)O)cc1`, the kinetic solubility is above 52.7 µg/mL.
`O=C(COC(=O)c1cccs1)Nc1ccc(F)c(F)c1`: the solubility (kinetic) came to 24.9 µg/mL (≈ 83.8 µM).
Compound `O=S1(=O)CCN(OCc2ccc(F)cc2Cl)CC1` registered a solubility (kinetic) of 43.1 µg/mL (≈ 147 µM).
Under `CCn1c(C(O)c2cc(OC)c(OC)c(OC)c2)nc2ccccc21` (configuration not stated) stands 47.7 µg/mL (≈ 139 µM).
Compound `COC(=O)c1sc(NC(=O)COc2ccccc2C)nc1C` had a kinetic solubility of 0.6 µg/mL (≈ 1.87 µM).
`NS(=O)(=O)c1ccc(-n2cccc2C=O)cc1` gave a kinetic solubility of 36.1 µg/mL (≈ 144 µM).
The compound `COc1cccc(NC(=O)Cn2cc(C(=O)C3CC3)c3ccccc32)c1` registered a kinetic solubility of 0.8 µg/mL (≈ 2.3 µM).
As for `O=C(COC(=O)CN1C(=O)c2ccccc2C1=O)Nc1ccccc1`, the kinetic solubility was above 50.7 µg/mL.
On to `O=C(Nc1nccs1)C1CCN(S(=O)(=O)c2ccccc2)CC1`, for which the solubility (kinetic) worked out at 43.7 µg/mL (≈ 124 µM).
As for `Cc1[nH]c2ccc(C(=O)NC3CCCC3)cc2c1C`, the solubility (kinetic) was above 38.5 µg/mL.
As to `O=C(CSc1ccccc1C(=O)N1CCN(c2ccc([N+](=O)[O-])cc2)CC1)N1CCCC1`, the kinetic solubility was above 68.2 µg/mL.
Compound `Cc1ccc(C)n1CCN1CCN(C(=O)c2ccc(Cl)cc2)CC1` came in with a kinetic solubility of 36.3 µg/mL (≈ 105 µM).
